Source: patent publication US8415272B2, “Quinoline derivatives and their use as fungicides” (Syngenta Crop Protection LLC, priority 2008, dated 2013)

What was measured:
[1] = test system: Phytophthora infestans; experiment: whole plant or invertebrate; assay type: in vivo; details: in Solanum lycopersicum, foliar, 96 h, read-out: control of fungal infection, Phytophthora infestans
[2] = test system: Plasmopara viticola; experiment: Leaf disk assay, Plasmopara viticola (downy mildew of grapevine), preventive; assay type: in vivo; details: foliar, 168 h, grapevine leaf disks, assessed seven days after inoculation, read-out: control of fungal infection, Plasmopara viticola
[3] = test system: Erysiphe graminis f.sp. tritici; experiment: Leaf disk assay, Erysiphe graminis f.sp. tritici (wheat powdery mildew), preventive; assay type: in vivo; details: Blumeria graminis, foliar, 96 h, wheat leaf segments, assessed four days after inoculation, read-out: control of fungal infection, Erysiphe graminis f.sp. tritici
Procedure, shortened: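 Preventive protocol: compound at 200 ppm in water (from DMSO) sprayed onto wheat leaf segments on agar, dried 12–24 h, then spore-inoculated. Fungicidal activity was assessed four days post-inoculation.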

[4] = test system: Puccinia recondita f.sp. tritici; experiment: Leaf disk assay, Puccinia recondita f.sp. tritici (wheat brown rust), preventive; assay type: in vivo; details: foliar, 216 h, wheat leaf segments, assessed nine days after inoculation, read-out: control of fungal infection, Puccinia recondita f.sp. tritici
[5] = test system: Pyrenophora teres; experiment: Leaf disk assay, Pyrenophora teres (barley net blotch), preventive; assay type: in vivo; details: foliar, 96 h, barley leaf segments, assessed four days after inoculation, read-out: control of fungal infection, Pyrenophora teres
Experimental: The compounds were tested in a leaf disk assay, with methods described below. The test compounds were dissolved in DMSO and diluted into water to 200 ppm. In the case of the test on Pythium ultimum, they were dissolved in DMSO and diluted into water to 20 ppm. Pyrenophora teres (barley net blotch): Barley leaf segments were placed on agar in a 24-well plate and sprayed with a solution of the test compound. After allowing to dry completely, for between 12 and 24 hours, the leaf disks were inoculated with a spore suspension of the fungus. After appropriate incubation the activity of a compound was assessed four days after inoculation as preventive fungicidal activity.

[6] = test system: Septoria nodorum; experiment: Leaf disk assay, Septoria nodorum (wheat glume blotch), preventive; assay type: in vivo; details: Parastagonospora nodorum, foliar, 96 h, wheat leaf segments, assessed four days after inoculation, read-out: control of fungal infection, Septoria nodorum
[7] = test system: Septoria tritici; experiment: Growth inhibition in nutrient broth, Septoria tritici (leaf blotch), photometric; assay type: cell-based; details: Zymoseptoria tritici, PDB broth, 24 C, 72 hrs, read-out: control of fungal infection, Septoria tritici
[8] = test system: Fusarium culmorum; experiment: Growth inhibition in nutrient broth, Fusarium culmorum (root rot), photometric; assay type: cell-based; details: 48 h, read-out: control of fungal infection, Fusarium culmorum
Procedure, shortened: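 Fusarium culmorum conidia in potato dextrose broth were added to compounds in DMSO. Plates were incubated at 24 C for 48 hrs, with growth inhibition read photometrically. […]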

[9] = test system: Pythium ultimum; experiment: Growth inhibition in potato dextrose broth, Pythium ultimum (damping off), photometric; assay type: cell-based; details: Globisporangium ultimum, 24° C., 48 hours, read-out: control of fungal infection, Pythium ultimum
Procedure, shortened: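 Growth inhibition was read photometrically at 48 hours after incubation at 24° C. Test compound was diluted from DMSO to 20 ppm in water and combined with potato dextrose broth seeded with Pythium ultimum mycelial fragments.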

C#Cc1cnc2ccc(OC(SC)C(=O)NC(C)(C)C#CCOC)cc2c1 (centres unmarked) [Example 23]
≥ 60%: pest or weed control at 200 ppm [1] | pest or weed control at 200 ppm [2] | pest or weed control at 200 ppm [3] | pest or weed control at 200 ppm [4] | pest or weed control at 200 ppm [5] | pest or weed control at 200 ppm [6] | inhibition of growth at 60 ppm [7] | inhibition of growth at 60 ppm [8] | inhibition of growth at 20 ppm [9]

C#Cc1cnc2cc(F)c(OC(SC)C(=O)NC(C)(C)COC)cc2c1 (centres unmarked) [Example 108]
≥ 60%: pest or weed control at 200 ppm [1] | pest or weed control at 200 ppm [2] | pest or weed control at 200 ppm [3] | pest or weed control at 200 ppm [4] | pest or weed control at 200 ppm [5] | pest or weed control at 200 ppm [6] | inhibition of growth at 60 ppm [7] | inhibition of growth at 60 ppm [8]

C#Cc1cnc2c(Cl)cc(OC(SC)C(=O)NC(C)(C)C)cc2c1 (centres unmarked) [Example 18]
≥ 60%: pest or weed control at 200 ppm [1] | pest or weed control at 200 ppm [2] | pest or weed control at 200 ppm [3] | pest or weed control at 200 ppm [4] | pest or weed control at 200 ppm [5] | pest or weed control at 200 ppm [6] | inhibition of growth at 60 ppm [7] | inhibition of growth at 60 ppm [8] | inhibition of growth at 20 ppm [9]

C#Cc1cnc2cc(F)c(OC(SC)C(=O)NC(C)(C)C)cc2c1 (centres unmarked) [Example 104]
≥ 60%: pest or weed control at 200 ppm [1] | pest or weed control at 200 ppm [2] | pest or weed control at 200 ppm [3] | pest or weed control at 200 ppm [4] | pest or weed control at 200 ppm [5] | pest or weed control at 200 ppm [6] | inhibition of growth at 60 ppm [7] | inhibition of growth at 60 ppm [8] | inhibition of growth at 20 ppm [9]

C#Cc1cnc2ccc(OC(SC)C(=O)NC(C)(C)C#C)cc2c1 (centres unmarked) [Example 21]
≥ 60%: pest or weed control at 200 ppm [1] | pest or weed control at 200 ppm [2] | pest or weed control at 200 ppm [3] | pest or weed control at 200 ppm [4] | pest or weed control at 200 ppm [5] | pest or weed control at 200 ppm [6] | inhibition of growth at 60 ppm [7] | inhibition of growth at 60 ppm [8] | inhibition of growth at 20 ppm [9]

C#Cc1cnc2ccc(OC(SC)C(=O)NC(C)(C)C#CC)cc2c1 (centres unmarked) [Example 22]
≥ 60%: pest or weed control at 200 ppm [1] | pest or weed control at 200 ppm [2] | pest or weed control at 200 ppm [3] | pest or weed control at 200 ppm [4] | pest or weed control at 200 ppm [5] | pest or weed control at 200 ppm [6] | inhibition of growth at 60 ppm [7] | inhibition of growth at 60 ppm [8] | inhibition of growth at 20 ppm [9]

C#Cc1cnc2c(Br)cc(OC(SC)C(=O)NC(C)(C)C#C)cc2c1 (centres unmarked) [Example 130]
≥ 60%: pest or weed control at 200 ppm [1] | pest or weed control at 200 ppm [2] | pest or weed control at 200 ppm [3] | pest or weed control at 200 ppm [4] | pest or weed control at 200 ppm [5] | pest or weed control at 200 ppm [6] | inhibition of growth at 60 ppm [7] | inhibition of growth at 60 ppm [8] | inhibition of growth at 20 ppm [9]

C#Cc1cnc2cc(F)c(OC(SC)C(=O)NC(C)(C)C#C)cc2c1 (centres unmarked) [Example 106]
≥ 60%: pest or weed control at 200 ppm [1] | pest or weed control at 200 ppm [2] | pest or weed control at 200 ppm [3] | pest or weed control at 200 ppm [4] | pest or weed control at 200 ppm [5] | pest or weed control at 200 ppm [6] | inhibition of growth at 60 ppm [7] | inhibition of growth at 60 ppm [8] | inhibition of growth at 20 ppm [9]

C#Cc1cnc2ccc(OC(SC)C(=O)NC(C)(C)C#CCC)cc2c1 (centres unmarked) [Example 117]
≥ 60%: pest or weed control at 200 ppm [1] | pest or weed control at 200 ppm [2] | pest or weed control at 200 ppm [3] | pest or weed control at 200 ppm [4] | pest or weed control at 200 ppm [5] | pest or weed control at 200 ppm [6] | inhibition of growth at 60 ppm [7] | inhibition of growth at 60 ppm [8] | inhibition of growth at 20 ppm [9]

C#Cc1cnc2c(Br)cc(OC(SC)C(=O)NC(C)(C)C)cc2c1 (centres unmarked) [Example 132]
≥ 60%: pest or weed control at 200 ppm [1] | pest or weed control at 200 ppm [2] | pest or weed control at 200 ppm [3] | pest or weed control at 200 ppm [4] | pest or weed control at 200 ppm [5] | pest or weed control at 200 ppm [6] | inhibition of growth at 60 ppm [7] | inhibition of growth at 60 ppm [8] | inhibition of growth at 20 ppm [9]

CSC(Oc1ccc2ncc(C#CCF)cc2c1)C(=O)NC(C)(C)C (centres unmarked) [Example 144]
≥ 60%: pest or weed control at 200 ppm [1] | pest or weed control at 200 ppm [2] | pest or weed control at 200 ppm [3] | pest or weed control at 200 ppm [5] | pest or weed control at 200 ppm [6] | inhibition of growth at 60 ppm [7] | inhibition of growth at 60 ppm [8] | inhibition of growth at 20 ppm [9]

C#Cc1cnc2c(C)cc(OC(CC)C(=O)NC(C)(C)C#C)cc2c1 (centres unmarked) [Example 114]
≥ 60%: pest or weed control at 200 ppm [1] | pest or weed control at 200 ppm [2] | pest or weed control at 200 ppm [3] | pest or weed control at 200 ppm [4] | pest or weed control at 200 ppm [5] | pest or weed control at 200 ppm [6] | inhibition of growth at 60 ppm [7] | inhibition of growth at 60 ppm [8]

C#CCOCC(C)(C)NC(=O)C(Oc1cc2cc(C#C)cnc2cc1F)SC (centres unmarked) [Example 109]
≥ 60%: pest or weed control at 200 ppm [1] | pest or weed control at 200 ppm [2] | pest or weed control at 200 ppm [3] | pest or weed control at 200 ppm [4] | pest or weed control at 200 ppm [5] | pest or weed control at 200 ppm [6] | inhibition of growth at 60 ppm [7] | inhibition of growth at 60 ppm [8]

C#Cc1cnc2ccc(OC(SC)C(=O)NC(C)(C)CF)cc2c1 (centres unmarked) [Example 99]
≥ 60%: pest or weed control at 200 ppm [1] | pest or weed control at 200 ppm [2] | pest or weed control at 200 ppm [3] | pest or weed control at 200 ppm [4] | pest or weed control at 200 ppm [5] | pest or weed control at 200 ppm [6] | inhibition of growth at 60 ppm [7] | inhibition of growth at 60 ppm [8]

C#Cc1cnc2ccc(OC(SC)C(=O)NC(C)(C#C)COC)cc2c1 (centres unmarked) [Example 129]
≥ 60%: pest or weed control at 200 ppm [1] | pest or weed control at 200 ppm [2] | pest or weed control at 200 ppm [3] | pest or weed control at 200 ppm [4] | pest or weed control at 200 ppm [5] | pest or weed control at 200 ppm [6] | inhibition of growth at 60 ppm [7] | inhibition of growth at 20 ppm [9]

C#Cc1cnc2c(C)cc(OC(CC)C(=O)NC(C)(C)C)cc2c1 (centres unmarked) [Example 115]
≥ 60%: pest or weed control at 200 ppm [1] | pest or weed control at 200 ppm [2] | pest or weed control at 200 ppm [3] | pest or weed control at 200 ppm [4] | pest or weed control at 200 ppm [5] | pest or weed control at 200 ppm [6] | inhibition of growth at 60 ppm [7] | inhibition of growth at 60 ppm [8]
